Reference: patent US20260285857A1, “BICYCLIC AND HETEROCYCLIC AMIDE COMPOUNDS” (priority 2024, published 2026)

Test system: immunoglobulin light chain protein WIL-FL T46L
Assay: Differential scanning fluorimetry (thermal shift) assay
Assay type: binding
Conditions: temperature shift [Tm]compound-[Tm]vehicle, recombinant WIL-FL T46L

SMILES	DSF (Table A)	DSF (Table B)
Cc1cc(N2CC[C@](c3ccccc3)(C(F)F)C2)cn2nc(C(=O)NCC(C)(C)O)nc12 [Compound 28, 6-[(3R)-3-(difluoromethyl)-3-phenyl-pyrrolidin-1-yl]-N-(2-hydroxy-2-methyl-propyl)-8-methyl-[1,2,4]triazolo[1,5-a]pyridine-2-carboxamide]	**** (>1.5-2.5° C.=****)	–
Cc1cc(N2CC[C@](C)(c3ccccc3)C2)cn2nc(C(=O)NC3CCC(N4CC5C(C4)C5C(=O)O)C3)nc12 (some centres unmarked) [Compound 365]	***** (>2.5° C.=*****)	–
Cc1cc(N2CC[C@](C)(c3ccccc3)C2)cn2nc(C(=O)NC3CCN(c4ccnc(-c5nnn[nH]5)c4)CC3)nc12 [Compound 284]	***** (>2.5° C.=*****)	–
CNC(=O)c1nc2c(C(F)F)cc(N3CC[C@](C)(c4ccccc4)C3)cn2n1 [Compound 760, (R)-8-(difluoromethyl)-N-methyl-6-(3-methyl-3-phenylpyrrolidin-1-yl)-[1,2,4]triazolo[1,5-a]pyridine-2-carboxamide]	–	***** (>2.5° C.=*****)
Cc1cc(N2CC[C@](C)(c3ccccc3)C2)cn2nc(C(=O)N3CCC(Nc4cccc(C(=O)O)n4)C4(COC4)C3)nc12 (some centres unmarked) [Compound 702]	–	***** (>2.5° C.=*****)
Cc1cc(N2CC[C@](C)(c3cccc(F)c3)C2)cn2nc(C(=O)NC3CCN(c4cccc(C(=O)O)n4)CC34COC4)nc12 (some centres unmarked) [Compound 700]	–	***** (>2.5° C.=*****)
Cc1cc(N2CC[C@](C)(c3ccccc3)C2)cn2nc(C(=O)N[C@H]3[C@@H]4CN(c5cccc(C(=O)O)n5)C[C@@H]43)nc12 [Compound 628]	–	***** (>2.5° C.=*****)
Cc1cc(N2CC[C@](C)(c3ccccc3)C2)cn2nc(C3OC4(C)CC3(C(N)=O)C4)nc12 (some centres unmarked) [Compound 476]	–	***** (>2.5° C.=*****)
Cc1cc(N2CC[C@](C)(c3ccccc3)C2)cn2nc(C34CC(CO3)C4COC3CCN(c4ccnc(C(=O)O)c4)CC3)nc12 (some centres unmarked) [Compound 502]	–	***** (>2.5° C.=*****)
Cc1cc(N2CC[C@](C)(c3ccccc3)C2)cn2nc([C@@]34C[C@@H](CO3)[C@H]4N3CC4(CN(c5cccc(C(=O)O)n5)C4)NC3=O)nc12 [Compound 519]	–	***** (>2.5° C.=*****)
Cc1cc(N2CC[C@](C)(c3ccccc3)C2)cn2nc(C34CC(CO3)C4NCC3(N)CCOCC3)nc12 (some centres unmarked) [Compound 521]	–	***** (>2.5° C.=*****)
Cc1cc(N2CC[C@](C)(c3ccccc3)C2)cn2nc(C34CC(CO3)C4Cc3nnn[nH]3)nc12 (some centres unmarked) [Compound 504]	–	***** (>2.5° C.=*****)
C[C@]1(c2ccccc2)CCN(c2cc(CO)c3nc(C45CC(N)(CO4)C5)nn3c2)C1 [Compound 59]	***** (>2.5° C.=*****)	–
Cc1cc(N2CC[C@](C)(c3ccccc3)C2)cn2nc(C(=O)NC3COC4(CCN(c5cccc(C(=O)O)n5)C4)C3)nc12 (some centres unmarked) [Compound 220]	***** (>2.5° C.=*****)	–
Cc1cc(N2CC[C@](C)(n3ccc(C(F)(F)F)n3)C2)cn2nc(C(=O)N3CC[C@@]4(CCN(c5cccc(C(=O)O)n5)C4)C3)nc12 [Compound 742]	–	***** (>2.5° C.=*****)
Cc1cnc(C2C3COC2(c2nc4c(C)cc(N5CC[C@](C)(c6ccccc6)C5)cn4n2)C3)[nH]1 (some centres unmarked) [Compound 70]	***** (>2.5° C.=*****)	–
Cc1cc(N2CC[C@](C)(c3ccccc3)C2)cn2nc(C(=O)N(C)C3(C(=O)O)CC3)nc12 [Compound 164]	***** (>2.5° C.=*****)	–
Cc1cc(N2CC[C@](C)(c3ccccc3)C2)cn2nc(C(=O)N3CC[C@@]4(CCN(C(=O)C5COC(C(=O)O)C5)C4)C3)nc12 (some centres unmarked) [Compound 672]	–	***** (>2.5° C.=*****)
Cc1cc(N2CC3(CCC3c3cccc(F)c3)C2)cn2nc(C34CC(CO3)C4N3CC4(CC4)NC3=O)nc12 (centres unmarked) [Compound 512, 6-[1-[6-[7-(3-fluorophenyl)-2-azaspiro[3.3]heptan-2-yl]-8-methyl-[1,2,4]triazolo[1,5-a]pyridin-2-yl]-2-oxabicyclo[2.1.1]hexan-5-yl]-4,6-diazaspiro[2.4]heptan-5-one]	–	***** (>2.5° C.=*****)
Cc1cc(OC[C@H](C)c2ccccc2)cn2nc(C(=O)NC3CCN(c4cccc(C(=O)O)n4)C3)nc12 (some centres unmarked) [Compound 305]	***** (>2.5° C.=*****)	–
Cc1cc(C(=O)O)cc(N2CC[C@@]3(CCN(C(=O)c4nc5c(C)cc(N6CC[C@](C)(c7ccccc7)C6)cn5n4)C3)C2)n1 [Compound 729, 2-methyl-6-((R)-7-(8-methyl-6-((R)-3-methyl-3-phenylpyrrolidin-1-yl)-[1,2,4]triazolo[1,5-a]pyridine-2-carbonyl)-2,7-diazaspiro[4.4]nonan-2-yl)isonicotinic acid]	–	***** (>2.5° C.=*****)
Cc1cc(N2CC[C@](C)(c3ccccc3)C2)cn2nc(C(=O)N3CC4CN(c5cccc(C(=O)O)n5)CC4(O)C3)nc12 (some centres unmarked) [Compound 246]	***** (>2.5° C.=*****)	–
Cc1cc(N2CC(C)(c3ccccc3)CC2=O)cn2nc(C(=O)N3CC[C@@]4(CCN(c5cccc(C(=O)O)n5)C4)C3)nc12 (some centres unmarked) [Compound 387]	** (>0.5-1 °C =**)	–
Cc1cc(N2CC[C@](C)(c3ccccc3)C2)cn2nc(C(=O)N3CCCC4(CC(N5CC6C(C5)C6C(=O)O)CO4)C3)nc12 (some centres unmarked) [Compound 355]	***** (>2.5° C.=*****)	–

SMILES	DSF (Table A)	DSF (Table B)
Cc1cc(N2CC[C@](C)(c3ccccc3)C2)cn2nc(C34CC(CO3)C4c3nc(C(N)=O)n[nH]3)nc12 (stereo partly drawn) [Compound 6, 5-[1-[8-methyl-6-[(3R)-3-methyl-3-phenyl-pyrrolidin-1-yl]-[1,2,4]triazolo[1,5-a]pyridine-2-yl]-2-oxabicyclo[2.1.1]hexan-5-yl]-1H-1,2,4-triazole-3-carboxamide]	***** (>2.5° C.=*****)	–
Cc1cc(N2CC[C@](C)(c3ccccc3)C2)cn2nc(C34CC(CO3)C4N3CC4(CC(CO)C4)NC3=O)nc12 (some centres unmarked) [Compound 511]	–	***** (>2.5° C.=*****)
Cc1cc(N2CC[C@](C)(c3ccccc3)C2)cn2nc(C(=O)NC3CC4(C3)CC(N3CC5C(CC(=O)O)C5C3)C4)nc12 (some centres unmarked) [Compound 356]	***** (>2.5° C.=*****)	–
Cc1cc(N2CC[C@](C)(c3ccccc3)C2)cn2nc(C(=O)N[C@@H]3CN(c4cccc(C(=O)O)n4)CC34CC4)nc12 [Compound 698]	–	***** (>2.5° C.=*****)
Cc1cc(N2CC[C@](C)(c3ccccc3)C2)cn2nc(C(=O)NC3CC4(C3)OCC4N3CCC(C(=O)O)CC3)nc12 (some centres unmarked) [Compound 359]	***** (>2.5° C.=*****)	–
Cc1cc(N2CC[C@](C)(c3ccccc3)C2)cn2nc(C(=O)N3CCC4(CCN(c5ccnc(C(=O)O)c5)C4)C3)nc12 (some centres unmarked) [Compound 257]	***** (>2.5° C.=*****)	–
Cc1cc(N2CC[C@](C)(c3ccccc3)C2)cn2nc(C(=O)N3CC4CCC3C(=O)N4c3cccc(C(=O)O)n3)nc12 (stereo partly drawn) [Compound 695, 6-[5-[8-methyl-6-[(3R)-3-methyl-3-phenyl-pyrrolidin-1-yl]-[1,2,4]triazolo[1,5-a]pyridine-2-carbonyl]-3-oxo-2,5-diazabicyclo[2.2.2]octan-2-yl]pyridine-2-carboxylic acid]	–	***** (>2.5° C.=*****)
Cc1cc(N2CC[C@](C)(c3ccccc3)C2)cn2nc(C(=O)N3CC[C@@]4(CCN(C(=O)CC(C)(C)C(=O)O)C4)C3)nc12 [Compound 707, 2,2-dimethyl-4-[(5R)-2-[8-methyl-6-[(3R)-3-methyl-3-phenyl-pyrrolidin-1-yl]-[1,2,4]triazolo[1,5-a]pyridine-2-carbonyl]-2,7-diazaspiro[4.4]nonan-7-yl]-4-oxo-butanoic acid]	–	***** (>2.5° C.=*****)
Cc1cc(N2CC[C@](C)(c3ccccc3)C2)cn2nc(C(=O)N3CCC(O)(CNc4cccc(C(=O)O)n4)C3)nc12 (some centres unmarked) [Compound 686]	–	***** (>2.5° C.=*****)
CNC(=O)c1nc2c(CNC(C)=O)cc(N3CC[C@](C)(c4ccccc4)C3)cn2n1 [Compound 348]	***** (>2.5° C.=*****)	–
Cc1cc(N2CC[C@](C)(c3ccccc3)C2)cn2nc(C34CC(CO3)C4COc3ccc(=O)[nH]c3)nc12 (some centres unmarked) [Compound 500]	–	***** (>2.5° C.=*****)
Cc1cc(N2CC[C@](C)(c3ccccc3)C2)cn2nc(C(=O)N3CCC4(CCC(C(=O)O)O4)C3)nc12 (some centres unmarked) [Compound 594]	–	***** (>2.5° C.=*****)
Cc1cc(N2CCC(C)(c3ccccc3Cl)C2)cn2nc(C(=O)N3CC[C@@]4(CCN(c5cccc(C(=O)O)n5)C4)C3)nc12 (some centres unmarked) [Compound 417]	***** (>2.5° C.=*****)	–
Cc1cc(N2CC[C@@](C)(n3ccc(C(F)(F)F)n3)C2)cn2nc(C34CC(N)(CO3)C4)nc12 [Compound 471, (R)-1-(8-methyl-6-(3-methyl-3-(3-(trifluoromethyl)-1H-pyrazol-1-yl)pyrrolidin-1-yl)-[1,2,4]triazolo[1,5-a]pyridin-2-yl)-2-oxabicyclo[2.1.1]hexan-4-amine]	–	**** (>1.5-2.5° C.=****)
Cc1cc(N2CCC(C)(c3ccc(F)cn3)C2)cn2nc(C(=O)N3CC[C@@]4(CCN(c5cccc(C(=O)O)n5)C4)C3)nc12 (some centres unmarked) [Compound 423]	*** (>1-1.5° C.=***)	–
Cc1cc(N2CC[C@](C)(c3ccccc3)C2)cn2nc(C(=O)N3CCC4(CCN(c5cncc(C(=O)O)c5)C4)C3)nc12 (some centres unmarked) [Compound 717]	–	***** (>2.5° C.=*****)
Cc1cc(N2CC[C@@](C)(c3ccccc3)C2)cn2nc(C(=O)NCC(O)C(F)(F)F)nc12 (some centres unmarked) [Compound 202]	***** (>2.5° C.=*****)	–
Cc1cc(N2CCC(C)(c3cccc(F)c3)C2)cn2nc(C(=O)NC3CCOC3)nc12 (centres unmarked) [Compound 383]	***** (>2.5° C.=*****)	–
Cc1cc(N2CC[C@](C)(c3ccccc3)C2)cn2nc(C(=O)N3CCC4(CCN(c5ccc(C(N)=O)c(C(=O)O)n5)C4)C3)nc12 (some centres unmarked) [Compound 610]	–	***** (>2.5° C.=*****)
Cc1cc(N2CC[C@](C)(c3ccccc3)C2)cn2nc(C34CC(CO3)C4Cn3cc(CO)nn3)nc12 (some centres unmarked) [Compound 481]	–	***** (>2.5° C.=*****)
C[C@]1(c2ccccc2)CCN(c2cc(O)c3nc(C(=O)N4CC[C@@]5(CCN(c6cccc(C(=O)O)n6)C5)C4)nn3c2)C1 [Compound 293]	**** (>1.5-2.5° C.=****)	–
Cc1nc(C2C3(CN)COC2(c2nc4c(C)cc(N5CC[C@](C)(c6ccccc6)C5)cn4n2)C3)n[nH]1 (some centres unmarked) [Compound 46]	***** (>2.5° C.=*****)	–
Cc1cc(N2CC[C@](C)(c3ccc(Cl)cc3)C2)cn2nc(C(=O)N3C[C@@H]4CN(c5cccc(C(=O)O)n5)C[C@@H]4C3)nc12 [Compound 420]	***** (>2.5° C.=*****)	–
